Test results taken from patent US20250154547A1, “REAGENTS AND METHODS USED IN DEPROTECTION OF 3'-O-AMINO POLYNUCLEOTIDES” (priority 2023, published 2025).
Read-outs that look alike come from different tables or passages of the source.

How the values were obtained:
[1] = system: dTTP-3′-ONH2
Description: 1 mM solution of dTTP-3′-ONH2 (100 uL) taken in 50 mM sodium acetate (pH 5.0), 50 mM sodium phosphate (pH 6.0), 50 mM sodium phosphate (pH 7.0) or 50 mM sodium bicarbonate (pH around 8, i.e. 8.25) buffers was agitated with ThermoMixer in sealed Eppendorf tubes with 2 eq of carbonylbisphosphonate as prepared in Example 1, at 25° C. After 5 min/20 min/60 min of incubation the corresponding reaction mixture had been quenched with 5-fold excess of hydroxylamine hydrochloride in 100 μL of deionized water followed by excess of aqueous 5% acetone. Thereby, non-reacted residual dTTP-ONH2 was converted to an inert acetoxime form—dTTP-OX. The quenched reaction mixtures were analyzed with reversed-phase HPLC as shown on FIG. 3 with the following conditions: C18 Xterra 3.5 μm, 4.6×50 mm column (Waters); Buffer A: 50 mM TEAB (pH 8.5), Buffer B: 100% ACN. Gradient elution method: flow rate: 1.5 mL/min, 0-2 min—0% ACN B, 5.3 min—10% ACN, 8 min—30% ACN, 8-10 min—100% ACN.
After 5 min/20 min/60 min of incubation the corresponding reaction mixture had been quenched with 100 μL of 5% acetone in 100 mM sodium bicarbonate buffer (pH around 8, i.e. 8.25). Thereby, non-reacted residual dTTP-ONH2 was converted to an inert acetoxime form—dTTP-OX. The quenched reaction mixtures were analyzed with reversed-phase HPLC as shown on FIG. 4 with the following conditions: C18 Xterra 3.5 μm, 4.6×50 mm column (Waters); Buffer A: 50 mM TEAB (pH 8.5), Buffer B: 100% ACN. Gradient elution method: flow rate: 1.5 mL/min, 0-2 min—0% ACN B, 5.3 min—10% ACN, 8 min—30% ACN, 8-10 min—100% ACN.

[2] = system: dATP-3′-ONH2, dTTP-3′-ONH2, dCTP-3′-ONH2 or dGTP-3′-ONH2; assay: Deprotection study with various 3′-O-NH2 nucleotides (96-well screening, RP-HPLC); conditions: for pH of highest cleavage rate (optimal pH): 2 mM agent, 1 mM dNTP-3′-ONH2, pH 5.0-8.25
Description: The screening tests were performed in a 96-well plate with a reaction volume of 100 uL. Nucleoside triphosphate (dATP-3′-ONH2, dTTP-3′-ONH2, dCTP-3′-ONH2 or dGTP-3′-ONH2) were taken at 1 mM final concentration in one of four 50 mM buffers (A: sodium acetate pH 5.0, B: sodium phosphate pH 6.0, C: sodium phosphate 7.0, D: sodium bicarbonate pH around 8, i.e. 8.25). Tetrasodium carbonylbisphosphonate was added to the dNTPs solutions at 2 mM final concentration and incubated during 5, 20 or 60 mins prior to quenching with 2× concentration of hydroxylamine hydrochloride. The 96-well plate were agitated with Thermomixer at 25° C. or 40° C. The catalytic effect of magnesium on cleavage rate was also investigated. For this purpose, the same experiments were performed in the presence of 20 mM magnesium sulfate. Prior to HPLC analysis reaction mixtures were additionally quenched with acetone to convert 3′-ONH2 to acetoxime form. The samples were analyzed by RP-HPLC with gradual gradient of acetonitrile in 50 mM TEAB buffer (pH 8.5). The cleavage rate was determined based on the ratio between dNTP-3′-OH and dNTP-3′-acetoxime.
Xterra RP C18 Column: 4.6*50 mm, (3.5 um silica), Buffer A: 50 mM TEAA (pH 7.0), Buffer B: 100% ACN. Method: 0-2 min—0% ACN B, 6 min—10% ACN, 8 min—30% ACN, 8-10 min—100% ACN. Flowrate: 1.5 mL/min, no loop insert.

With `CC(=O)P(=O)(O)O` [acetylphosphonic acid, Acetylphosphonic acid] the “conversion of 3′-ONH2 to 3′-OH” value ([1]; 2 eq, 60 minutes, pH 6 or 7, 25° C.) was “about 60%”.
`O=C(P(=O)(O)O)P(=O)(O)O` [carbonylbisphosphonate, Tetrasodium Carbonylbisphosphonate] was tested, and the “pH of highest cleavage rate (optimal pH)” value [2] was “around 5”, the “pH of highest cleavage rate (optimal pH)” value ([2]; listed as carbonyl bisphosphonate) was 5.0 and the “Mg (II) impact on cleavage yield” value ([2]; 20 mM magnesium sulfate) was “Magnesium markedly facilitates the cleavage yield at higher pH”. For the same molecule, the “conversion of 3′-ONH2 to 3′-OH” value ([1]; 2 eq deprotecting agent, pH 5, 5 min, 25° C., 1 mM dTTP-3′-ONH2) was 100%.
With `O=NO` [sodium nitrite, reference compound] the “conversion to dTTP-OH” value ([1]; pH 5) was “about 80%” and the “reaction speed with oxyamines compared with carbonylbisphosphonate” value ([1]; pH 5) was “several times slower”.
